Results published in ChEMBL document CHEMBL4138146, “A Schmidt rearrangement-mediated synthesis of novel tetrahydro-benzo[1,4]diazepin-5-ones as potential anticancer and antiprotozoal agents” (Eur J Med Chem, 2017).

What was measured:
Type in all cases: functional
[1] = tested on: CCRF-CEM; test: Growth inhibition of human CCRF-CEM cells assessed as cell growth at 10^-6 M incubated for 48 hrs by sulforhodamine B assay relative to control; conditions: read-out: Activity
[2] = tested on: MDA-MB-435; test: Growth inhibition of human MDA-MB-435 cells assessed as cell growth at 10^-8 M incubated for 48 hrs by sulforhodamine B assay relative to control; conditions: MDA-MB-435, 48 h, read-out: Activity
[3] = tested on: A498; test: Growth inhibition of human A498 cells assessed as cell growth at 10^-7 M incubated for 48 hrs by sulforhodamine B assay relative to control; conditions: A498, 48 h, read-out: Activity
[4] = tested on: SF-268; test: Growth inhibition of human SF268 cells assessed as cell growth at 10^-5 M incubated for 48 hrs by sulforhodamine B assay relative to control; conditions: SF-268, 48 h, read-out: Activity
[5] = tested on: NCI-H226; test: Growth inhibition of human NCI-H226 cells assessed as cell growth at 10^-8 M incubated for 48 hrs by sulforhodamine B assay relative to control; conditions: NCI-H226, 48 h, read-out: Activity
[6] = tested on: HOP-92; test: Growth inhibition of human HOP92 cells assessed as cell growth at 10^-8 M incubated for 48 hrs by sulforhodamine B assay relative to control; conditions: HOP-92, 48 h, read-out: Activity
[7] = tested on: RXF 393; test: Growth inhibition of human RXF393 cells assessed as cell growth at 10^-5 M incubated for 48 hrs by sulforhodamine B assay relative to control; conditions: RXF 393, 48 h, read-out: Activity
[8] = tested on: U-251; test: Growth inhibition of human U251 cells assessed as cell growth at 10^-7 M incubated for 48 hrs by sulforhodamine B assay relative to control; conditions: U-251, 48 h, read-out: Activity
[9] = tested on: 786-0; test: Growth inhibition of human 786-0 cells assessed as cell growth at 10^-7 M incubated for 48 hrs by sulforhodamine B assay relative to control; conditions: 786-0, 48 h, read-out: Activity
[10] = tested on: NCI-H522; test: Growth inhibition of human NCI-H522 cells assessed as cell growth at 10^-8 M incubated for 48 hrs by sulforhodamine B assay relative to control; conditions: NCI-H522, 48 h, read-out: Activity
[11] = tested on: NCI/ADR-RES; test: Growth inhibition of human NCI/ADR-RES cells assessed as cell growth at 10^-8 M incubated for 48 hrs by sulforhodamine B assay relative to control; conditions: read-out: Activity
[12] = tested on: HL-60(TB); test: Growth inhibition of human HL-60(TB) cells assessed as cell growth at 10^-4 M incubated for 48 hrs by sulforhodamine B assay relative to control; conditions: HL-60, 48 h, read-out: Activity
[13] = tested on: TK-10; test: Growth inhibition of human TK10 cells assessed as cell growth at 10^-5 M incubated for 48 hrs by sulforhodamine B assay relative to control; conditions: TK-10, 48 h, read-out: Activity
[14] = tested on: Malme-3M; test: Growth inhibition of human MALME-3M cells assessed as cell growth at 10^-8 M incubated for 48 hrs by sulforhodamine B assay relative to control; conditions: read-out: Activity
[15] = tested on: UO-31; test: Growth inhibition of human UO31 cells assessed as cell growth at 10^-6 M incubated for 48 hrs by sulforhodamine B assay relative to control; conditions: UO-31, 48 h, read-out: Activity
[16] = tested on: IGROV-1; test: Growth inhibition of human IGROV1 cells assessed as cell growth at 10^-7 M incubated for 48 hrs by sulforhodamine B assay relative to control; conditions: IGROV-1, 48 h, read-out: Activity
[17] = tested on: NCI-H322M; test: Growth inhibition of human NCI-H322M cells assessed as cell growth at 10^-5 M incubated for 48 hrs by sulforhodamine B assay relative to control; conditions: read-out: Activity
[18] = tested on: OVCAR-4; test: Growth inhibition of human OVCAR4 cells assessed as cell growth at 10^-4 M incubated for 48 hrs by sulforhodamine B assay relative to control; conditions: OVCAR-4, 48 h, read-out: Activity
[19] = tested on: RXF 393; test: Growth inhibition of human RXF393 cells assessed as cell growth at 10^-7 M incubated for 48 hrs by sulforhodamine B assay relative to control; conditions: RXF 393, 48 h, read-out: Activity
[20] = tested on: SW-620; test: Growth inhibition of human SW620 cells assessed as cell growth at 10^-8 M incubated for 48 hrs by sulforhodamine B assay relative to control; conditions: SW-620, 48 h, read-out: Activity
[21] = tested on: RXF 393; test: Growth inhibition of human RXF393 cells assessed as cell growth at 10^-8 M incubated for 48 hrs by sulforhodamine B assay relative to control; conditions: RXF 393, 48 h, read-out: Activity
[22] = tested on: Malme-3M; test: Growth inhibition of human MALME-3M cells assessed as cell growth at 10^-4 M incubated for 48 hrs by sulforhodamine B assay relative to control; conditions: read-out: Activity
[23] = tested on: M14; test: Growth inhibition of human M14 cells assessed as cell growth at 10^-7 M incubated for 48 hrs by sulforhodamine B assay relative to control; conditions: M14, 48 h, read-out: Activity
[24] = tested on: HCT-116; test: Growth inhibition of human HCT116 cells assessed as cell growth at 10^-7 M incubated for 48 hrs by sulforhodamine B assay relative to control; conditions: HCT-116, 48 h, read-out: Activity
[25] = tested on: NCI-H226; test: Growth inhibition of human NCI-H226 cells assessed as cell growth at 10^-5 M incubated for 48 hrs by sulforhodamine B assay relative to control; conditions: NCI-H226, 48 h, read-out: Activity
[26] = tested on: CAKI-1; test: Growth inhibition of human Caki1 cells assessed as cell growth at 10^-7 M incubated for 48 hrs by sulforhodamine B assay relative to control; conditions: CAKI-1, 48 h, read-out: Activity
[27] = tested on: MDA-MB-435; test: Growth inhibition of human MDA-MB-435 cells assessed as cell growth at 10^-4 M incubated for 48 hrs by sulforhodamine B assay relative to control; conditions: MDA-MB-435, 48 h, read-out: Activity
[28] = tested on: SNB-75; test: Growth inhibition of human SNB75 cells assessed as cell growth at 10^-6 M incubated for 48 hrs by sulforhodamine B assay relative to control; conditions: SNB-75, 48 h, read-out: Activity
[29] = tested on: SN12C; test: Growth inhibition of human SN12C cells assessed as cell growth at 10^-8 M incubated for 48 hrs by sulforhodamine B assay relative to control; conditions: read-out: Activity
[30] = tested on: OVCAR-3; test: Growth inhibition of human OVCAR3 cells assessed as cell growth at 10^-6 M incubated for 48 hrs by sulforhodamine B assay relative to control; conditions: OVCAR-3, 48 h, read-out: Activity
[31] = tested on: NCI-H522; test: Growth inhibition of human NCI-H522 cells assessed as cell growth at 10^-5 M incubated for 48 hrs by sulforhodamine B assay relative to control; conditions: NCI-H522, 48 h, read-out: Activity
[32] = tested on: SNB-75; test: Growth inhibition of human SNB75 cells assessed as cell growth at 10^-8 M incubated for 48 hrs by sulforhodamine B assay relative to control; conditions: SNB-75, 48 h, read-out: Activity
[33] = tested on: CCRF-CEM; test: Growth inhibition of human CCRF-CEM cells assessed as cell growth at 10^-8 M incubated for 48 hrs by sulforhodamine B assay relative to control; conditions: read-out: Activity
[34] = tested on: LOX IMVI; test: Growth inhibition of human LOXIMVI cells assessed as cell growth at 10^-5 M incubated for 48 hrs by sulforhodamine B assay relative to control; conditions: read-out: Activity
[35] = tested on: SF-268; test: Growth inhibition of human SF268 cells assessed as cell growth at 10^-7 M incubated for 48 hrs by sulforhodamine B assay relative to control; conditions: SF-268, 48 h, read-out: Activity

For `CCCCOc1nc2ccccc2cc1C1CNC(=O)c2ccccc2N1` (stereo not given), the growth at 1 µM [1] was 85%, the growth at 0.01 µM [2] was 95% and the growth at 0.1 µM [3] was 62%. It also gave a growth at 10 µM [4] of 31%, a growth at 0.01 µM [5] of 97% and a growth at 0.01 µM [6] of 76%. For the same compound, the growth at 10 µM [7] was 5%, the growth at 0.1 µM [8] was 96% and the growth at 0.1 µM [9] was 100%. It also gave a growth at 0.01 µM [10] of 90%, a growth at 0.01 µM [11] of 94% and a growth at 100 µM [12] of -55%. The growth at 10 µM [13] was 31%, the growth at 0.01 µM [14] was 88% and the growth at 1 µM [15] was 61%. It also gave a growth at 0.1 µM [16] of 92%, a growth at 10 µM [17] of 31% and a growth at 100 µM [18] of -37%. The growth at 0.1 µM [19] was 86%, the growth at 0.01 µM [20] was 96% and the growth at 0.01 µM [21] was 100%. It also gave a growth at 100 µM [22] of -53%, a growth at 0.1 µM [23] of 91% and a growth at 0.1 µM [24] of 101%. For the same compound, the growth at 10 µM [25] was 7%, the growth at 0.1 µM [26] was 86% and the growth at 100 µM [27] was -74%. For the same compound, the growth at 1 µM [28] was 63%, the growth at 0.01 µM [29] was 97% and the growth at 1 µM [30] was 64%. The growth at 10 µM [31] was 25%, the growth at 0.01 µM [32] was 73% and the growth at 0.01 µM [33] was 98%. It also gave a growth at 10 µM [34] of 15% and a growth at 0.1 µM [35] of 92%.
